Patent US20140051631A1, “PHARMACEUTICAL COMPOSITION COMPRISING TPO OR AN AGONIST OF THE TPO RECEPTOR” (priority 2012, published 2014)
Blank lines part the entries; values can stand above or below the molecule they belong to.

What was measured:
[1] = molecular target: T1, DNA-PK (Mus musculus, UniProt P97313); assay: γH2AX foci resolution in LSK-CD34− cultures with DNA-PK inhibitor; type: cell-based, mice; conditions: 10 μm NU7441 in TPO-containing cultures of LSK-CD34− cells, IR 2 Gy, 24 h
T1 construct: LSK and LSK-CD34^− cells were sorted using ARIAS cell sorter; endogenous in cells; host or cells: primary mouse bone-marrow LSK-CD34- cells
Description: (§1) Mpl^−/− backcrossed on C57BL/6 (CD45.2) background (kindly provided by Dr F. de Sauvage) were described previously (Petit-Cocault et al., 2007). C57BL/6J (CD45.2 and CD45.1) and CB17-Prkdc-scid mice were purchased from Charles River and Harlan laboratories, respectively. Unless otherwise specified, mice of 8-10 weeks of age were used. Lin^− progenitors were isolated from BM and stained as described (Saulnier et al., 2012). LSK and LSK-CD34^− cells were sorted using ARIAS cell sorter (BD Franklin Lakes, N.J., USA) and cultured in StemSpan SFEM (StemCell Technologies) supplemented with recombinant Flt3-Ligand (100 ng/ml), interleukin-3 (IL-3, 10 ng/ml), interleukin-6 (IL-6, 10 ng/ml), Stem cell factor (SCF, 100 ng/ml), and with or without 50 ng/ml TPO (complete medium), all from Peprotech (Rocky Hill, N.J., USA). […] For competitive reconstitution experiments, 3000 LSKs sorted from C57BL/6 CD45.1 mice subjected or not to TBI (2 Gy) and TPO injection (8 μg/kg body weight), were injected in lethally irradiated (10 Gy) C57BL/6 CD45.2 congenic mice, together with 3×10^5 BM CD45.2 competitor cells and analyzed 4 months later.
(§2) Immunofluorescence was performed as described (Pawlikowska et al., 2010) with cells cytospun on glass slides. […] Pictures were analyzed using ImageJ software.

[2] = tested on: LSKs; assay: γH2AX foci / DNA break disappearance after IR in vitro in cytokine cultures; type: cell-based, mice; conditions: removal of the cytokine from culture medium
Description: as §1, §2

[3] = tested on: LSK and LSK-CD34^− cells; assay: Persistent DNA damage (γH2AX) in LSK and LSK-CD34− cells 3 months after TBI; type: in vivo, mice; conditions: TPO prior to TBI, analyzed 3 months later
Description: as §1, §2

[4] = tested on: UT7-Mpl cells; assay: DNA damage and p-DNA-PK foci in UT7-Mpl cells after IR; type: cell-based, human
Description: (§3) Mpl^−/− backcrossed on C57BL/6 (CD45.2) background (kindly provided by Dr F. de Sauvage) were described previously (Petit-Cocault et al., 2007). C57BL/6J (CD45.2 and CD45.1) and CB17-Prkdc-scid mice were purchased from Charles River and Harlan laboratories, respectively. Unless otherwise specified, mice of 8-10 weeks of age were used. Lin^− progenitors were isolated from BM and stained as described (Saulnier et al., 2012). LSK and LSK-CD34^− cells were sorted using ARIAS cell sorter (BD Franklin Lakes, N.J., USA) and cultured in StemSpan SFEM (StemCell Technologies) supplemented with recombinant Flt3-Ligand (100 ng/ml), interleukin-3 (IL-3, 10 ng/ml), interleukin-6 (IL-6, 10 ng/ml), Stem cell factor (SCF, 100 ng/ml), and with or without 50 ng/ml TPO (complete medium), all from Peprotech (Rocky Hill, N.J., USA). UT7-Mpl cells (Hamelin et al., 2006) were cultured in α-minimal essential medium (α-MEM) supplemented with 10% FCS and 2 U/ml erythropoietin (EPO, Boehringer Ingelheim). Cell IR in vitro were carried-out in a Biobeam 8000 irradiator (Gamma Service Medical GmbH, Leipzig, Germany). Mice TBI were performed in cesium irradiator IBL 637 (Curie Institute, Paris). Etoposide and doxorubicine were purchased from sigma (Saint-Louis, Mo., USA), drugs were injected intraperitoneally at the indicated doses. For competitive reconstitution experiments, 3000 LSKs sorted from C57BL/6 CD45.1 mice subjected or not to TBI (2 Gy) and TPO injection (8 μg/kg body weight), were injected in lethally irradiated (10 Gy) C57BL/6 CD45.2 congenic mice, together with 3×10^5 BM CD45.2 competitor cells and analyzed 4 months later.
(§4) Immunofluorescence was performed as described (Pawlikowska et al., 2010) with cells cytospun on glass slides. Slides were visualized with Leica DMI 6000 (Wetzlar, Germany) microscope equipped with a 63×1.6 oil-immersion objective and a coupled device camera MicroMAX (Princeton Instruments Trenton, N.J., USA). Pictures were analyzed using ImageJ software.

[5] = tested on: LSKs from SCID mice; assay: γH2AX foci in LSKs from SCID mice after TBI; type: in vivo; conditions: SCID mice (DNA-PKcs mutation), TPO 8 μg/kg, TBI 2 Gy, 16 h
Description: as §1, §2

[6] = tested on: LSKs; assay: Competitive reconstitution with LSKs from irradiated donor mice; type: in vivo
Description: as §1, with “USA). UT7-Mpl cells (Hamelin et al., 2006) were cultured in α-minimal essential medium (α-MEM) supplemented with 10% FCS and 2 U/ml erythropoietin (EPO, Boehringer Ingelheim).” for “USA).”

[7] = tested on: LSK and LSK-CD34^− cells; assay: LSK and LSK-CD34− proportions, cell cycle status and cell cycle regulators 5 h after TBI; type: in vivo, mice
Description: as §3

[8] = tested on: Rad51 foci; assay: Homologous recombination markers: Rad51 foci and repair of replicative-stress DSBs; type: cell-based
[9] = tested on: Lin^− progenitors; assay: Chromosomal aberrations in metaphases from Lin− progenitors after TBI in vivo; set-up: species or system mice
Description: Fluorescence was analyzed with a Zeiss Axioplan epifluorescent microscope and ISIS/M-FISH imaging system (MetaSystems).

[10] = tested on: LSKs; assay: γH2AX foci in LSKs of mice after TBI or chemotherapeutic drug injection; type: in vivo; conditions: WT mice, vs PBS
Description: as §3, §4

[11] = tested on: WT HSPCs; assay: Chromosomal rearrangements in HSPCs irradiated in vitro; type: cell-based, mice; conditions: WT HSPCs irradiated in vitro (2 Gy), cultured in the absence of TPO
Description: as §1
Chromosomal aberration analysis in metaphase spreads were performed as described previously (Pawlikowska et al., 2010). […] Fluorescence was analyzed with a Zeiss Axioplan epifluorescent microscope and ISIS/M-FISH imaging system (MetaSystems).

[12] = in the absence of TPO, compared to TPO-treated cells, IR 2 Gy

- TPO-improved γH2AX foci resolution [1]: completely abolished
Molecule: O=c1cc(N2CCOCC2)oc2c(-c3cccc4c3sc3ccccc34)cccc12 [NU7441]

Molecule: Stem cell factor [SCF, reference compound]
- kinetics of IR-induced γH2AX foci or DNA break disappearance [2]: did not impair

Molecule: Thrombopoietin [TPO]
- number and cycle of HSCs and HSPCs [3]: no effect
- persistent DNA damage (γH2AX foci) in HSCs and HSPCs [3]: almost completely abolished
- TPO action on IR-induced DNA damage in human cell line ([4]; UT7-Mpl grown with EPO or TPO): could also act
- number of UT7-Mpl cells showing IR-induced pSer2056- and pT2609-DNA-PK foci [4, 12]: significantly decreased
- p-DNA-PK foci number in positively stained cells [4, 12]: greatly reduced
- total DNA-PK signal ([4]; upon IR or TPO treatment): did not change
- TBI-induced LSK γH2AX foci formation [5]: did not decrease
- increase in donor CD45.1 chimerism in the peripheral blood and in BM LSK cells ([6]; 4 months after transplantation, TPO vs PBS before TBI): 3- to 5 fold
- donor chimerism, difference between the TPO and PBS groups ([6]; 6 weeks posttransplantation): No difference
- proportions of LSK and LSK-CD34− cells recovered from BM ([7]; 5 h after TBI, PBS vs TPO-treated mice): not significantly different
- cell cycle status of LSK or LSK-CD34− cells ([7]; TPO treatment pre-TBI, compared to PBS): did not alter
- expression of cell cycle regulators p57kip2 and p27Kip1 ([7]; after TPO injection and TBI): remained unchanged
- repair of DSBs induced by replicative stresses ([8]; camptotecin and hydroxyurea): could not improve
- IR-induced Rad51 foci formation ([8]; functional marker of HR): did not increase
- chromosomal aberrations in metaphases from progenitor cells ([9]; 3 months from TBI, TPO-injected mice): greatly reduced
- genomic instability (genomic rearrangements) transmitted to progenitor progeny of LSKs ([9]; 4 months after reconstitution of lethally irradiated recipients, TPO injection before TBI): significantly reduced
- number of LSKs displaying γH2AX foci ([10]; TPO 8 μg/kg injected just before 2 Gy TBI, at 5 h): reduced significantly
- number of LSKs displaying γH2AX foci ([10]; TPO injected just before doxorubicine (3 or 10 mg/kg), at 24 h): reduced significantly
- number of LSKs displaying γH2AX foci ([10]; TPO injected just before etoposide (4 mg/kg), at 24 h): reduced significantly
- chromosomal rearrangements [11]: high numbers

B1: Flt3-ligand: recombinant cytokine of the culture medium (100 ng/ml) (protein, UniProt P49771 27-235, looked up)
Fms-related tyrosine kinase 3 …: TQDCSFQHSPISSDFAVKIRELSDYLLQDYPVTVASNLQDEELCGGLWRLVLAQRWMERLKTVAGSKMQGLLERVNTEIHFVTKCAFQPPPSCLRFVQTNISRLLQETSEQLVALKPWITRQNFSRCLELQCQPDSSTLPPPWSPRPLEATAPTAPQPPLLLLLLLPVGLLLLAAAWCLHWQRTRRRTPRPGEQVPPVPSPQDLLLVEH
- kinetics of IR-induced γH2AX foci or DNA break disappearance [2]: did not impair
